The structures appear in SMILES notation.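 Interpolation was linear, between the two tested concentrations surrounding the appropriate level; five concentrations were tested over 48 hours in 96-well plates. Definition used: TGI = concentration required for complete inhibition of growth.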

The text below walks through data of PubChem BioAssay (NCI).

Assay in all cases: growth of human tumour cells (NCI), 48 h
The test system of test [1] is MCF7 breast.
For test [2], the system named is UACC-257 melanoma.
Test [3] has as its system ACHN renal.
Test [4] concerns A549 NSCLC.
The subject of test [5] is MDA-MB-435.
Test [6] has as its system RPMI-8226 leukemia.
For test [7], the system named is HOP-92 NSCLC.
Test [8] relates to IGROV1 ovarian.
Test [9] concerns MOLT-4 leukemia.
For test [10], the system named is PC-3 prostate.
Test [11] concerns NCI-H226 lung.

`CCCCCCCCCCCCC1N=C(N)NC2(CCCO2)C1C(=O)OC` (stereo not drawn): the TGI in [1] amounted to 9.2 µM; in test [2], 19 µM; in test [3], 25.2 µM; in [4], 30.9 µM; in [5] it was 15.6 µM; in test [6], 5.53 µM. Moreover, the TGI was 17.2 µM in [7]; 6.72 µM in [8]; 5.3 µM in test [9]; 8.57 µM in test [10]; 36.9 µM in [11].

As for `CCOc1ccccc1NC(=O)C1=C(C)NC(C)=C(C(=O)Nc2ccccc2OCC)C1c1ccc([N+](=O)[O-])cc1`, the TGI in [2], in [3], in [4], in test [6], in [7] and in test [8] was > 100 µM in each case. Also, in test [11], the TGI is > 100 µM.

Consider `COc1cc(CCc2ccc(OC(C)=O)cc2)cc(OC)c1OC`, for which the TGI in [2], in test [3], in [4], in test [6], in [7] and in test [8] was > 100 µM in each case. In addition, the TGI in [9] and in [11] was > 100 µM in each case.

In the case of `CN(/N=C\c1ccc2ccccc2c1)C1=NCCCN1`, the TGI in test [1] amounted to 26.4 µM; in [2], 23.6 µM; in test [3], 35.9 µM; in test [4], 24.7 µM; in test [5], 30.8 µM; in [6], 50.7 µM. Also, the TGI in test [7] stood at 14.5 µM; in test [8], 23.3 µM; in test [9], 8.93 µM; in test [11] it was 40.4 µM.

`Cc1nc(-n2nc(-c3ccccc3)cc2-c2ccccc2)sc1C(=O)/C=C/c1ccccc1`: the TGI in test [2], in test [3], in [4], in test [6], in [7] and in test [8] was > 100 µM in each case. In addition, the TGI in [9] was > 100 µM.

Regarding `C/C(CC(=O)Nc1cccc([N+](=O)[O-])c1)=N\NC(=O)C[n+]1ccccc1`, the TGI in [2], in test [4], in test [6], in [7], in test [8] and in [9] was > 100 µM each time. The TGI in test [11] is > 100 µM.

As for `O=C1CNN=C(Cn2nc(-c3ccccc3)c3ccccc3c2=O)N1`, the TGI in test [2], in test [3], in test [4], in [6], in [7] and in test [8] was > 100 µM in each case. Also, the TGI in test [9] and in test [11] was > 100 µM in each case.

As to `O=c1[nH]c2ccc([N+](=O)[O-])cc2nc1/C(=N/Nc1ccccc1)C(O)c1ccco1` (stereo not drawn), the TGI in test [2], in [3], in test [4], in test [6], in [7] and in test [8] was > 100 µM throughout. The TGI in test [9] and in test [11] was > 100 µM throughout.

Take `CC(CC=O)Nc1nn2c(=O)c3ccccc3nc2s1` (stereo not drawn): the TGI in test [1], in test [2], in test [3], in test [4], in [5] and in test [6] was > 100 µM in each case. Moreover, the TGI in test [7], in test [8], in test [9], in test [10] and in test [11] was > 100 µM each time.

In the case of `O=C(c1ccccc1)c1cc(Cl)ccc1NCn1nnc2ccccc21`, the TGI in test [2], in test [3], in test [4], in [6], in test [7] and in [8] was > 100 µM throughout. Further, the TGI in test [9] and in test [11] was > 100 µM throughout.

Consider `c1ccc(Nc2nnc(CCCCCCCCc3nnc(Nc4ccccc4)o3)o2)cc1`, for which the TGI in test [1], in [2], in test [3], in test [4], in test [5] and in [8] was > 100 µM each time. Further, the TGI in test [9], in test [10] and in test [11] was > 100 µM in each case.

For `O=CC1=CCC2c3[nH]c4ccccc4c3CCN2C1` (stereo not drawn), the TGI was 347 µM in test [2]; > 396 µM in test [3]; > 396 µM in [4]; > 396 µM in test [6]; > 396 µM in [7]; > 396 µM in test [8]. Moreover, the TGI in [9] is > 396 µM; in test [11] it was 385 µM.

For `CC[C@]1(Cc2ccc(OC)c(OC)c2)C=[N+]([O-])O[C@H](OC2CCCC2(c2ccccc2)c2ccccc2)[C@@H]1OC(=O)C(C)(C)C` (stereo partly drawn), the TGI is > 23.3 µM in [1]; 18.7 µM in test [2]; 5.25 µM in test [3]; > 36.6 µM in test [4]; 4.12 µM in test [5]; 18.2 µM in test [7]. The TGI was 9 µM in test [8], > 100 µM in test [9], 14.8 µM in test [10] and 12.5 µM in [11].

Turning to `O=c1cccccc1[O-].O=c1cccccc1[O-].O=c1cccccc1[O-].[Sm+3]`, the TGI in test [2], in test [3], in test [4], in [6], in [7] and in [8] was > 100 µM in each case. For the same compound, the TGI in [9] and in test [11] was > 100 µM throughout.

With `O=C(/C(=C/c1ccc(O)cc1)c1ccccc1)c1ccccc1`, the TGI was determined as 32.9 µM in [2]; 29.6 µM in test [3]; 41.7 µM in [4]; 42.3 µM in test [6]; 18.3 µM in test [7]; 38.3 µM in test [8]. Further, the results for the TGI in [9] and in [11] were 37.3 µM and 30.8 µM, respectively.

Consider `Cc1ccccc1Nc1nc2ccccc2nc1NS(=O)(=O)c1ccccc1`, for which the TGI in test [1], in [2], in test [3], in [4], in test [5] and in [6] was > 100 µM throughout. The TGI in test [7], in [8], in test [9], in test [10] and in test [11] was > 100 µM in each case.

Take `O=C(O)CCC1NC(/C(=C/c2ccccc2O)NC(=O)c2ccccc2)OC1=O` (stereo not drawn): the TGI in [1], in test [2], in test [3], in test [4], in test [5] and in test [6] was > 100 µM in each case. Further, the TGI in test [7], in [8], in test [9], in test [10] and in test [11] was > 100 µM throughout.

Turning to `COc1ccc2c(c1)[n+](=O)c(C(C)=O)c(C)n2[O-]`, the TGI in test [2], in [3], in [4], in test [6], in test [7] and in test [8] was > 100 µM each time. The TGI in test [9] and in [11] was > 100 µM each time.

With `CC1=CCN(c2ccccn2)OC1c1ccccc1` (stereo not drawn), the TGI in test [2], in test [3], in test [4], in test [6], in [8] and in test [9] was > 100 µM throughout. Further, in test [11], the TGI was > 100 µM.

`COC(=O)C1CCC(=O)N1/C(C)=N/NC(=O)Nc1ccc(Cl)c(Cl)c1` (stereo not drawn): the TGI in test [2], in [3], in test [4], in test [6], in test [7] and in test [8] was > 100 µM each time. Also, the TGI in test [9] is > 100 µM.

Take `COC(=O)CC1CC2(C(=O)OC)c3[nH]c4ccccc4c3CCN2C1=O` (stereo not drawn): the TGI in test [2], in [3], in [4], in [7], in test [8] and in [9] was > 100 µM in each case. For the same compound, the TGI in test [11] is > 100 µM.

Consider `COc1ccc(C23OCC(Cc4cc(OC)c(OC)cc42)C3CO)cc1OC` (stereo not drawn), for which the TGI in [1], in [3], in [4], in test [5], in test [6] and in test [9] was > 100 µM throughout. The TGI in [10] and in [11] was > 100 µM throughout.

With `N#Cc1c(N)nc(Sc2ccccc2N)c(C#N)c1-c1ccccc1`, the TGI was 49.8 µM in test [1]; > 100 µM in [2]; 69.2 µM in test [3]; > 100 µM in test [4]; 97.3 µM in [5]; > 100 µM in test [6]. The TGI was 64.3 µM in test [7]; > 100 µM in test [8]; > 100 µM in test [9]; 33.3 µM in test [10]; > 100 µM in test [11].
